Reference: patent publication US10750743B2, “Pyridazinone herbicides” (E.I. DU PONT DE NEMOURS AND COMPANY, priority 2015, dated 2020)

What was measured:
Format in all cases: in vivo
[1] = system: pigweed (Amaranthus retroflexus); experiment: Test A preemergence, directed soil spray, visual injury rating; settings: 0 is no effect, 100 is complete control
Summary of the method: (§1)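 Seeds sown in a loam soil–sand blend received a directed preemergence soil spray of test chemical in a non-phytotoxic solvent mixture with surfactant. Postemergence plants were sprayed at 2 to 10 cm, one- to two-leaf stage. After approximately 10 d in greenhouse, injury was visually rated 0 (no effect) to 100 (complete control) against untreated controls.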

[2] = system: barnyardgrass (Echinochloa crus-galli); experiment: as above; settings: 0 is no effect, 100 is complete control
Summary of the method: as §1

kochia (Kochia scoparia) [3] = experiment: as above; settings: 0 is no effect, 100 is complete control
Summary of the method: as §1

[4] = system: ragweed (common ragweed, Ambrosia elatior); experiment: as above; settings: 0 is no effect, 100 is complete control
Summary of the method: as §1

[5] = system: foxtail, giant (giant foxtail, Setaria faberii); experiment: as above; settings: 0 is no effect, 100 is complete control
Summary of the method: as §1

[6] = system: ryegrass, It. (Italian ryegrass, Lolium multiflorum); experiment: as above; settings: 0 is no effect, 100 is complete control
Summary of the method: as §1

[7] = system: ducksalad (Heteranthera limosa); experiment: Test B flooded paddy test, visual rating; settings: Flood, 250 g ai/ha, applied to paddy water, rated after 13 to 15 d
Summary of the method: (§2)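 Plants at the 2-leaf stage were flooded to 3 cm above soil, and test compounds were applied directly into the paddy water, which was held at that depth throughout. After 13 to 15 d in a greenhouse, injury was rated visually against untreated controls on a 0–100 scale (0 no effect, 100 complete control).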

[8] = system: barnyardgrass (Echinochloa crus-galli); experiment: Test B flooded paddy test, visual rating; settings: Flood, 250 g ai/ha, applied to paddy water, rated after 13 to 15 d
Summary of the method: as §2

[9] = system: sedge, umbrella (small-flower umbrella sedge, Cyperus difformis); experiment: Test B flooded paddy test, visual rating; settings: Flood, 250 g ai/ha, applied to paddy water, rated after 13 to 15 d
Summary of the method: as §2

rice (Oryza sativa) = experiment: Test B flooded paddy test, visual rating; settings: Flood, 250 g ai/ha, applied to paddy water, rated after 13 to 15 d
Summary of the method: as §2

[10] = system: pigweed (Amaranthus retroflexus); experiment: Test A postemergence application, visual injury rating; settings: 0 to 100 scale, 0 no effect, 100 complete control
Summary of the method: as §1

[11] = system: barnyardgrass (Echinochloa crus-galli); experiment: as above; settings: 0 to 100 scale, 0 no effect, 100 complete control
Summary of the method: as §1

[12] = system: blackgrass (Alopecurus myosuroides); experiment: as above; settings: 0 to 100 scale, 0 no effect, 100 complete control
Summary of the method: as §1

[13] = system: wheat (Triticum aestivum); experiment: as above; settings: 0 to 100 scale, 0 no effect, 100 complete control
Summary of the method: as §1

kochia (Kochia scoparia) [14] = experiment: as above; settings: 0 to 100 scale, 0 no effect, 100 complete control
Summary of the method: as §1

[15] = system: ragweed (common ragweed, Ambrosia elatior); experiment: as above; settings: 0 to 100 scale, 0 no effect, 100 complete control
Summary of the method: as §1

[16] = system: foxtail, giant (giant foxtail, Setaria faberii); experiment: as above; settings: 0 to 100 scale, 0 no effect, 100 complete control
Summary of the method: as §1

[17] = system: ryegrass, It. (Italian ryegrass, Lolium multiflorum); experiment: as above; settings: 0 to 100 scale, 0 no effect, 100 complete control
Summary of the method: as §1

corn (Zea mays) = experiment: as above; settings: 0 to 100 scale, 0 no effect, 100 complete control
Summary of the method: as §1

[18] = system: galium (catchweed bedstraw, Galium aparine); experiment: as above; settings: 0 to 100 scale, 0 no effect, 100 complete control
Summary of the method: as §1

Structure (SMILES) | Plant response rating (0 to 100 scale), Pigweed ([1]; 125 g ai/ha) | Plant response rating (0 to 100 scale), Barnyardgrass ([2]; 125 g ai/ha) | Plant response rating (0 to 100 scale), Kochia (kochia (Kochia scoparia) [3]; 125 g ai/ha) | Plant response rating (0 to 100 scale), Ragweed ([4]; 125 g ai/ha) | Plant response rating (0 to 100 scale), Foxtail, Giant ([5]; 125 g ai/ha) | Plant response rating (0 to 100 scale), Ryegrass, It. ([6]; 125 g ai/ha) | Ducksalad plant response rating (0 to 100 scale, 0 is no effect, 100 is complete control) [7] | Barnyardgrass plant response rating (0 to 100 scale, 0 is no effect, 100 is complete control) [8] | Sedge, Umbrella plant response rating (0 to 100 scale, 0 is no effect, 100 is complete control) [9] | Rice plant response rating (0 to 100 scale, 0 is no effect, 100 is complete control) (rice (Oryza sativa)) | Pigweed plant response rating ([10]; 125 g ai/ha) | Barnyardgrass plant response rating ([11]; 125 g ai/ha) | Blackgrass plant response rating ([12]; 125 g ai/ha) | Wheat plant response rating ([13]; 125 g ai/ha) | Kochia plant response rating (kochia (Kochia scoparia) [14]; 125 g ai/ha) | Ragweed plant response rating ([15]; 125 g ai/ha) | Foxtail, Giant plant response rating ([16]; 125 g ai/ha) | Ryegrass, It. plant response rating ([17]; 125 g ai/ha) | Corn plant response rating (corn (Zea mays); 125 g ai/ha) | Galium plant response rating ([18]; 125 g ai/ha) | also measured
Cc1nn(C)c(=O)c(-c2c(C)sc3ncccc23)c1OC(=O)C1CC1 [Compound 23] | 0 | 0 | 0 | 0 | 0 | 0 | 0 | 0 | 0 | 0 | 0 | 0 | 0 | 0 | 0 | 0 | 0 | 0 | 0 | 0 | Plant response rating (0 to 100 scale), Pigweed ([1]; 500 g ai/ha): 0; Plant response rating (0 to 100 scale), Barnyardgrass ([2]; 500 g ai/ha): 0; Plant response rating (0 to 100 scale), Kochia (kochia (Kochia scoparia) [3]; 500 g ai/ha): 0; Plant response rating (0 to 100 scale), Ragweed ([4]; 500 g ai/ha): 0; Plant response rating (0 to 100 scale), Foxtail, Giant ([5]; 500 g ai/ha): 0; Plant response rating (0 to 100 scale), Ryegrass, It. ([6]; 500 g ai/ha): 0; Pigweed plant response rating ([10]; 500 g ai/ha): 40; Barnyardgrass plant response rating ([11]; 500 g ai/ha): 0; Blackgrass plant response rating ([12]; 500 g ai/ha): 0; Wheat plant response rating ([13]; 500 g ai/ha): 0; Kochia plant response rating (kochia (Kochia scoparia) [14]; 500 g ai/ha): 0; Ragweed plant response rating ([15]; 500 g ai/ha): 0; Foxtail, Giant plant response rating ([16]; 500 g ai/ha): 0; Ryegrass, It. plant response rating ([17]; 500 g ai/ha): 10; Corn plant response rating (corn (Zea mays); 500 g ai/ha): 20; Galium plant response rating ([18]; 500 g ai/ha): 0
CCOC(=O)Oc1c(C)nn(C)c(=O)c1-c1c(C)sc2ncccc12 [Compound 24] | 0 | 0 | 0 | 0 | 0 | 10 | 0 | 0 | 0 | 0 | 0 | 0 | 0 | 0 | 0 | 0 | 0 | 0 | 0 | 0 | Plant response rating (0 to 100 scale), Pigweed ([1]; 500 g ai/ha): 0; Plant response rating (0 to 100 scale), Barnyardgrass ([2]; 500 g ai/ha): 0; Plant response rating (0 to 100 scale), Kochia (kochia (Kochia scoparia) [3]; 500 g ai/ha): 0; Plant response rating (0 to 100 scale), Ragweed ([4]; 500 g ai/ha): 0; Plant response rating (0 to 100 scale), Foxtail, Giant ([5]; 500 g ai/ha): 0; Plant response rating (0 to 100 scale), Ryegrass, It. ([6]; 500 g ai/ha): 20; Pigweed plant response rating ([10]; 500 g ai/ha): 10; Barnyardgrass plant response rating ([11]; 500 g ai/ha): 0; Blackgrass plant response rating ([12]; 500 g ai/ha): 0; Wheat plant response rating ([13]; 500 g ai/ha): 0; Kochia plant response rating (kochia (Kochia scoparia) [14]; 500 g ai/ha): 0; Ragweed plant response rating ([15]; 500 g ai/ha): 0; Foxtail, Giant plant response rating ([16]; 500 g ai/ha): 0; Ryegrass, It. plant response rating ([17]; 500 g ai/ha): 20; Corn plant response rating (corn (Zea mays); 500 g ai/ha): 10; Galium plant response rating ([18]; 500 g ai/ha): 0
CCC(=O)Oc1c(C)nn(C)c(=O)c1-c1cccc2cc(C)oc12 [Compound 26] | 10 | 0 | 30 | 10 | 0 | 80 | 0 | 0 | 0 | 0 | 40 | 10 | 20 | 0 | 20 | 30 | 30 | 80 | 0 | 90 | Plant response rating (0 to 100 scale), Pigweed ([1]; 31 g ai/ha): 0; Plant response rating (0 to 100 scale), Barnyardgrass ([2]; 31 g ai/ha): 0; Plant response rating (0 to 100 scale), Kochia (kochia (Kochia scoparia) [3]; 31 g ai/ha): 0; Plant response rating (0 to 100 scale), Ragweed ([4]; 31 g ai/ha): 0; Plant response rating (0 to 100 scale), Foxtail, Giant ([5]; 31 g ai/ha): 0; Plant response rating (0 to 100 scale), Ryegrass, It. ([6]; 31 g ai/ha): 10; Pigweed plant response rating ([10]; 31 g ai/ha): 30; Barnyardgrass plant response rating ([11]; 31 g ai/ha): 0; Blackgrass plant response rating ([12]; 31 g ai/ha): 0; Wheat plant response rating ([13]; 31 g ai/ha): 0; Kochia plant response rating (kochia (Kochia scoparia) [14]; 31 g ai/ha): 20; Ragweed plant response rating ([15]; 31 g ai/ha): 0; Foxtail, Giant plant response rating ([16]; 31 g ai/ha): 0; Ryegrass, It. plant response rating ([17]; 31 g ai/ha): 50; Corn plant response rating (corn (Zea mays); 31 g ai/ha): 0; Galium plant response rating ([18]; 31 g ai/ha): 70
Cc1nc2c(-c3c(O)c(C)nn(C)c3=O)cccc2s1 [Compound 27] | 0 | 0 | 0 | 20 | 0 | 30 | 0 | 0 | 0 | 0 | 0 | 0 | 0 | 0 | 0 | 0 | 20 | 20 | 0 | 0 | Plant response rating (0 to 100 scale), Pigweed ([1]; 500 g ai/ha): 0; Plant response rating (0 to 100 scale), Barnyardgrass ([2]; 500 g ai/ha): 0; Plant response rating (0 to 100 scale), Kochia (kochia (Kochia scoparia) [3]; 500 g ai/ha): 0; Plant response rating (0 to 100 scale), Ragweed ([4]; 500 g ai/ha): 20; Plant response rating (0 to 100 scale), Foxtail, Giant ([5]; 500 g ai/ha): 50; Plant response rating (0 to 100 scale), Ryegrass, It. ([6]; 500 g ai/ha): 40; Pigweed plant response rating ([10]; 500 g ai/ha): 0; Barnyardgrass plant response rating ([11]; 500 g ai/ha): 20; Blackgrass plant response rating ([12]; 500 g ai/ha): 30; Wheat plant response rating ([13]; 500 g ai/ha): 0; Kochia plant response rating (kochia (Kochia scoparia) [14]; 500 g ai/ha): 0; Ragweed plant response rating ([15]; 500 g ai/ha): 30; Foxtail, Giant plant response rating ([16]; 500 g ai/ha): 40; Ryegrass, It. plant response rating ([17]; 500 g ai/ha): 40; Corn plant response rating (corn (Zea mays); 500 g ai/ha): 0; Galium plant response rating ([18]; 500 g ai/ha): 60
COC(=O)Oc1c(C)nn(C)c(=O)c1-c1cccc2cc(C)oc12 [Compound 28] | 0 | 0 | 20 | 30 | 0 | 70 | 0 | 0 | 0 | 0 | 40 | 10 | 30 | 0 | 40 | 60 | 20 | 60 | 0 | 80 | Plant response rating (0 to 100 scale), Pigweed ([1]; 31 g ai/ha): 0; Plant response rating (0 to 100 scale), Barnyardgrass ([2]; 31 g ai/ha): 0; Plant response rating (0 to 100 scale), Kochia (kochia (Kochia scoparia) [3]; 31 g ai/ha): 0; Plant response rating (0 to 100 scale), Ragweed ([4]; 31 g ai/ha): 0; Plant response rating (0 to 100 scale), Foxtail, Giant ([5]; 31 g ai/ha): 0; Plant response rating (0 to 100 scale), Ryegrass, It. ([6]; 31 g ai/ha): 20; Pigweed plant response rating ([10]; 31 g ai/ha): 10; Barnyardgrass plant response rating ([11]; 31 g ai/ha): 0; Blackgrass plant response rating ([12]; 31 g ai/ha): 0; Wheat plant response rating ([13]; 31 g ai/ha): 0; Kochia plant response rating (kochia (Kochia scoparia) [14]; 31 g ai/ha): 0; Ragweed plant response rating ([15]; 31 g ai/ha): 20; Foxtail, Giant plant response rating ([16]; 31 g ai/ha): 0; Ryegrass, It. plant response rating ([17]; 31 g ai/ha): 30; Corn plant response rating (corn (Zea mays); 31 g ai/ha): 0; Galium plant response rating ([18]; 31 g ai/ha): 40
